Experimental data from patent publication US5948791A, “Quinoline derivatives for treating malaria” (Hoffmann-La Roche Inc., priority 1995, dated 1999).
Like-named read-outs stand apart in the source and are kept apart here.

Assays:
Plasmodium berghei = assay: animal or person; format: in vivo, Plasmodium berghei (strain ANKA) in mice; details: Plasmodium berghei, mice, blood smears 48 h after treatment
Summary of the method: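 Male albino mice (~25 g) infected i.v. on D0 with P. berghei ANKA (0.2 ml of 10^8 parasitized erythrocytes/ml); single s.c. and p.o. dose 24 h post-infection, 10 mg/kg screen then titration.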

Plasmodium falciparum K1 = assay: Growth inhibition of Plasmodium falciparum K1 (chloroquine-resistant) in vitro, [G-3H]-hypoxanthin incorporation; format: cell-based, Plasmodium falciparum (strain K1); details: for IC50: Plasmodium falciparum, K1, 72 h, read-out: IC50 for P. falciparum K1; for Resistance index: ratio of the IC50 for K1 and the IC50 for NF54
Summary of the method: (§1)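 Asynchronous intraerythrocytic cultures in human A+ erythrocytes (0.7% parasitemia, 2.5% suspension) in RPMI 1640 with HEPES, NaHCO3 and human serum, exposed to compound titrated over 6-7 steps for 72 h at 37° C, 3% O2. Growth by [G-3H]-hypoxanthin incorporation against untreated controls; IC50 by logit regression.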

[1] = system: Plasmodium falciparum strain NF54; assay: Growth inhibition of Plasmodium falciparum NF54 (chloroquine-sensitive) in vitro, [G-3H]-hypoxanthin incorporation; format: cell-based; details: chloroquine-sensitive strain NF54, 72 h, read-out: IC50 for P. falciparum NF54
Summary of the method: as §1

[2] = po, single peroral dose of 10 mg/kg, read-out: Growth inhibition in % after po administration (GI%, percentage reduction of the parasitemia)
[3] = sc, single subcutaneous dose of 10 mg/kg, read-out: Growth inhibition in % after sc administration (GI%, percentage reduction of the parasitemia)

Structure (SMILES)	inhibition in vivo at 10 mg/kg (Plasmodium berghei; [2]) [%]	inhibition in vivo at 10 mg/kg (Plasmodium berghei; [3]) [%]	IC50 (Plasmodium falciparum K1) [ng/mL]	Resistance index (Plasmodium falciparum K1)	IC50 [1] [ng/mL]
Cl.Cl.N#Cc1ccc(CN[C@H]2CC[C@@H](Nc3ccnc4cc(Cl)ccc34)CC2)cc1 [Example 86, cis-N1-(7-Chloro-quinolin-4-yl)-N4-(4-cyano-benzyl)-cyclohexane-1,4-diamine dihydrochloride]	99.9	99.9	7	1.3	5.6
Cl.Cl.Clc1ccc2c(N[C@H]3CC[C@@H](NCc4ccc(-c5ccccc5)cc4)CC3)ccnc2c1 [Example 87, cis-N1-(7-Chloro-quinolin-4-yl)-N4-(biphenyl-4-yl-methyl)-cyclohexane-1,4-diamine dihydrochloride]	98	94	10.2	1.6	6.2
COc1ccc(CCN[C@H]2CC[C@H](Nc3ccnc4cc(Cl)ccc34)CC2)cc1OC.Cl.Cl [Example 88, trans-N1-(7-Chloro-quinolin-4-yl)-N4-[2-(3,4-dimethoxy-phenyl)-ethyl]-cyclohexane-1,4-diamine dihydrochloride]	66	99.9	21.4	2.9	7.4
Cl.Cl.Clc1ccc2c(N[C@H]3CC[C@H](NCCc4ccccc4)CC3)ccnc2c1 [Example 89, trans-N1-(7-Chloro-quinolin-4-yl)-N4-phenethyl-cyclohexane-1,4-diamine dihydrochloride]	99.8	99.9	17.5	8.0	2.2
COc1cc(N[C@H]2CC[C@H](Nc3ccnc4cc(Cl)ccc34)CC2)cc(OC)c1.Cl [Example 90, trans-N1-(7-Chloro-quinolin-4-yl)-N4-(3,5-dimethoxy-phenyl)-cyclohexane-1,4-diamine hydrochloride]	45	60	98.8	2.0	49.7
Cl.Cl.Clc1ccc(CCN[C@H]2CC[C@H](Nc3ccnc4cc(Cl)ccc34)CC2)c(Cl)c1 [Example 91, trans-N1-(7-Chloro-quinolin-4-yl)-N4-[2-(2,4-dichloro-phenyl)-ethyl]-cyclohexane-1,4-diamine dihydrochloride]	88	86	10.9	3.2	3.4
COc1ccc(CCN[C@H]2CC[C@H](Nc3ccnc4cc(Cl)ccc34)CC2)cc1.Cl.Cl [Example 92, trans-N1-(7-Chloro-quinolin-4-yl)-N4-[2-(4-methoxy-phenyl)-ethyl]-cyclohexane-1,4-diamine dihydrochloride]	85	99.7	8	3.6	2.2
Cl.Cl.O=[N+]([O-])c1ccc(CCN[C@H]2CC[C@H](Nc3ccnc4cc(Cl)ccc34)CC2)cc1 [Example 93, trans-N1-(7-Chloro-quinolin-4-yl)-N4-[2-(4-nitro-phenyl)-ethyl]-cyclohexane-1,4-diamine dihydrochloride]	98	99	8.3	2.4	3.4
COc1cc(CCN[C@H]2CC[C@H](Nc3ccnc4cc(Cl)ccc34)CC2)cc(OC)c1.Cl.Cl [Example 94, trans-N1-(7-Chloro-quinolin-4-yl)-N4-[2-(3,5-dimethoxy-phenyl)-ethyl]-cyclohexane-1,4-diamine dihydrochloride]	99	99.9	9.8	3.4	2.9
Cl.Cl.Clc1ccc2c(N[C@H]3CC[C@H](NCCc4ccc5c(c4)OCO5)CC3)ccnc2c1 [Example 95, trans-N1-(2-Benzo[1,3]dioxol-5-yl-ethyl)-N4-(7-chloro-quinolin-4-yl)-cyclohexane-1,4-diamine dihydrochloride]	98	99.7	9.3	3.4	2.7
Cl.Cl.Clc1cccc(CCN[C@H]2CC[C@H](Nc3ccnc4cc(Cl)ccc34)CC2)c1 [Example 96, trans-N1-[2-(3-Chloro-phenyl)-ethyl]-N4-(7-chloro-quinolin-4-yl)-cyclohexane-1,4-diamine dihydrochloride]	95	98	9	5.6	1.6
COc1ccc(OC)c(CCN[C@H]2CC[C@H](Nc3ccnc4cc(Cl)ccc34)CC2)c1.Cl.Cl [Example 97, trans-N1-(7-Chloro-quinolin-4-yl)-N4-[2-(2,5-dimethoxy-phenyl)-ethyl]-cyclohexane-1,4-diamine dihydrochloride]	49	99	17.8	4.3	4.1
Cl.Cl.Clc1ccc2c(N[C@H]3CC[C@H](NCCc4ccc(Oc5ccccc5)cc4)CC3)ccnc2c1 [Example 98, trans-N1-(7-Chloro-quinolin-4-yl)-N4-[2-(4-phenoxy-phenyl)-ethyl]-cyclohexane-1,4-diamine dihydrochloride]	50	93	8.5	1.9	4.5
Cl.Cl.Clc1ccc2c(N[C@H]3CC[C@H](NCCc4ccc(Cl)c(Cl)c4)CC3)ccnc2c1 [Example 99, trans-N1-(7-Chloro-quinolin-4-yl)-N4-[2-(3,4-dichloro-phenyl)-ethyl]-cyclohexane-1,4-diamine dihydrochloride]	91	96	4.2	1.3	3.3
COc1ccc(CN[C@H]2CC[C@H](Nc3ccnc4cc(Cl)ccc34)CC2)cc1.Cl.Cl [Example 100, trans N1-(7-Chloro-quinolin-4-yl)-N4-(4-methoxy-benzyl)-cyclohexane-1,4-diamine dihydrochloride]	14	99	4	2.1	1.9
Cl.Cl.Clc1ccc2c(N[C@H]3CC[C@H](NCCc4c(Cl)cccc4Cl)CC3)ccnc2c1 [Example 101, trans-N1-(7-Chloro-quinolin-4-yl)-N4-[2-(2,6-dichloro-phenyl)-ethyl]-cyclohexane-1,4-diamine dihydrochloride]	72	84	2.9	1.1	2.7
Cl.Cl.Clc1ccc2c(N[C@H]3CC[C@H](NCc4ccc(Cl)c(Cl)c4)CC3)ccnc2c1 [Example 102, trans N1-(7-Chloro-quinolin-4-yl)-N4-(3,4-dichloro-benzyl)-cyclohexane-1,4-diamine dihydrochloride]	72	81	3.6	1.7	2.1
